Structures can show the parent of a compound that is named as a salt. Where two headings read alike, the source gives them in different places.

In test [1] the test system is HepG2 cells. The settings on record: for IC50 in HepG2 cells / IC50: 11 concentrations, 1:3 dilution, Inactive = no significant activity at 46 µM; for % Max response: HepG2 cells; for IC50: read-out: IC50 in HepG2 cells.
Text: (§1) Growth medium was made with Dulbecco's Modified Eagle Medium with 10% fetal bovine serum (FBS).
The test system of test [2] is P. falciparum 3D7 gametocytes. In words: alamarBlue gametocyte viability assay, strain 3D7. The test is classed as cell-based, Plasmodium falciparum. The settings on record: for Emax: read-out: Activity against gametocytes Efficacy (% response). For orientation: Resazurin is reduced to fluorescent resorufin, in cell work by metabolically active cells.
Test [3] has as its system P. falciparum HB3 gametocytes. In words: alamarBlue gametocyte viability assay, strain HB3. It counts as cell-based, Plasmodium falciparum.
Experimental: Briefly, gametocyte cultures were set up at 0.1% parasitemia and on days 9–10 treated with 50 mM N-acetylglucosamine (NAG) to block further asexual growth. Stage III–V gametocytes were isolated by Percoll density gradient centrifugation on day 12 and returned to culture for 24 hrs before being used in the assay[9].
Briefly, 2.5 μl/well incomplete medium was dispensed into each well of 1,536-well plates using the Multidrop Combi followed by 23 nl compound transferring using the NX-TR Pintool (WAKO Scientific Solutions, San Diego, CA). Then, 2.5 μl/well of gametocytes was dispensed with a seeding density of 20,000 cells/well using the Multidrop Combi. The assay plates were incubated for 72 hrs at 37°C with 5% CO2.
Test [4] has as its system P. falciparum Dd2 gametocytes. Put plainly: alamarBlue gametocyte viability assay, strain Dd2. It counts as cell-based, Plasmodium falciparum.
The subject of test [5] is HepG2 cells. In words: cells. The settings on record: Homo sapiens, HepG2, read-out: % Max response.
Text: as §1
For test [6], the system named is P. falciparum asexual parasites. More on the design: method as in earlier work. The settings on record: SI Table 3, previous screens, cited from earlier work; for IC50: read-out: Activity against asexual parasites IC50.
Where [7] appears, read: Plasmodium falciparum, 3D7, P. falciparum 3D7 gametocytes, mean of at least 3 independent experiments, read-out: Gametocyte IC50.
Setting [8] is: Plasmodium falciparum, HB3, strain profiling; 11 concentrations, 1:3 dilution, three times; read-out: HB3-gametocytes IC50.
Setting [9] is: Plasmodium falciparum, DD2, strain profiling; 11 concentrations, 1:3 dilution, three times; read-out: Dd2-gametocytes IC50.
The mark [10] stands for this setting: Plasmodium falciparum, 3D7, strain profiling, 11 concentrations, 1:3 dilution, three times, read-out: 3D7-gametocytes IC50.
Setting [11] is: P. falciparum 3D7 gametocytes, mean of at least 3 independent experiments, read-out: Gametocyte IC50.
Where [12] appears, read: strain profiling; 11 concentrations, 1:3 dilution, three times; read-out: HB3-gametocytes IC50.
[13] abbreviates: strain profiling; 11 concentrations, 1:3 dilution, three times; read-out: Dd2-gametocytes IC50.
Where [14] appears, read: Plasmodium falciparum, 3D7, SI Table 3, structure clusters.
Setting [15] is: Plasmodium falciparum, 3D7, SI Table 3, structure clusters, read-out: Activity against gametocytes IC50.
[16] abbreviates: SI Table 3, structure clusters, read-out: Activity against gametocytes IC50.
Where [17] appears, read: read-out: Gametocyte IC50, P. falciparum 3D7 gametocytes, mean of at least 3 independent experiments.
The mark [18] stands for this setting: read-out: HB3-gametocytes IC50; strain profiling; 11 concentrations, 1:3 dilution, three times.
[19] abbreviates: read-out: Dd2-gametocytes IC50; strain profiling; 11 concentrations, 1:3 dilution, three times.

In the case of `CCN(CCO)CCCOc1ccc2c(Nc3cc(CC(=O)Nc4cccc(F)c4)n[nH]3)ncnc2c1` [AZD-1152-HQPA], in the test on HepG2 cells [1], the “IC50 in HepG2 cells” value is listed as “Inactive”. In addition, the half-inhibitory concentration (IC50) (commonly the point on the concentration scale where inhibition reaches its midpoint) in test [2] (setting [7]) was 743 nM; in test [3] (setting [8]), 1480 nM; in test [4] (setting [9]), 1480 nM. Moreover, in the test on HepG2 cells [5], the Emax is 11%.
Regarding `COc1cccc2c1C(=O)c1c(O)c3c(c(O)c1C2=O)C[C@@](O)(C(=O)CO)C[C@@H]3O[C@H]1C[C@H](N)[C@H](O)[C@H](C)O1` [Adriamycin], the “IC50 in HepG2 cells” value with HepG2 cells [1] was “Inactive”. In addition, the IC50 was 526 nM in test [2] (setting [7]), 935 nM in test [3] (setting [8]) and 1050 nM in test [4] (setting [9]). The Emax in the test on HepG2 cells [5] is -35%.
Regarding `CO[C@H]1O[C@@H]2O[C@@]3(C)CC[C@H]4[C@H](C)CC[C@@H]([C@H]1C)[C@@]24OO3` [Artemether], the “IC50 in HepG2 cells” value in the test on HepG2 cells [1] was “Inactive”. The IC50 in test [2] (setting [7]) was determined as 73 nM; in test [2] (setting [10]) it was 74 nM; in test [3] (setting [8]), 47 nM; in test [4] (setting [9]), 53 nM. Further, in the test with HepG2 cells [5], the Emax was 7%.
As for `C[C@@H]1CC[C@H]2[C@@H](C)C(=O)O[C@@H]3O[C@@]4(C)CC[C@@H]1[C@]32OO4` [Artemisinin], in the test with HepG2 cells [1], the “IC50 in HepG2 cells” value is listed as “Inactive”. Moreover, the IC50 in test [2] (setting [7]) came out at 148 nM; in test [3] (setting [8]), 74 nM; in test [4] (setting [9]), 61 nM. Moreover, the Emax in the test on HepG2 cells [5] was 18%.
For `C[C@H]1[C@@H](O)O[C@@H]2O[C@@]3(C)CC[C@H]4[C@H](C)CC[C@@H]1[C@@]24OO3` [Artenimol (DHA), Artenimol] the same measures were “Inactive”, 77 nM, 59 nM, 53 nM and 20%.
For `C[C@H]1[C@H](OC(=O)CCC(=O)O)O[C@@H]2O[C@@]3(C)CC[C@H]4[C@H](C)CC[C@@H]1[C@@]24OO3` [Artesunate], in the test with HepG2 cells [1], the “IC50 in HepG2 cells” value is on record as “Inactive”. The results for the concentration for half-maximal inhibition (IC50) in test [2] (setting [7]), in test [3] (setting [8]) and in test [4] (setting [9]) were 59 nM, 47 nM and 30 nM, respectively. The Emax in the test with HepG2 cells [5] was found to be 18%.
Regarding `CC(=O)OC[C@H]1O[C@@H]([S-])[C@H](OC(C)=O)[C@@H](OC(C)=O)[C@@H]1OC(C)=O.CCP(CC)CC.[Au+]` [Auranofin], the “% Max response” value with HepG2 cells [1] is recorded as -98%. Moreover, the IC50 in the test with HepG2 cells [1] was 9350 nM; in test [2] (setting [11]), 935 nM; in test [3] (setting [12]) it was 1050 nM; in test [4] (setting [13]), 1180 nM.
For `CC1(C)OC2=C(C(=O)c3ccccc3C2=O)[C@H](NCc2ccccc2)[C@@H]1O` [CAY10581] the same measures were -86%, 17100 nM, 743 nM, 662 nM and 2350 nM.
For `COc1ncc(-c2ccc3nccc(-c4ccnnc4)c3c2)cc1NS(=O)(=O)c1ccc(F)cc1F` [GSK-458], in the test with HepG2 cells [1], the “IC50 in HepG2 cells” value was “Inactive”. Besides, the “% Max response” value in the test with HepG2 cells [1] stood at 33%. Moreover, the 50% inhibitory concentration (IC50) in test [2] (setting [11]) is 935 nM; in test [3] (setting [12]) it was 332 nM; in test [4] (setting [13]), 1480 nM.
Turning to `CCCCN(CCCC)CC(O)c1cc(Cl)cc2c1-c1ccc(Cl)cc1/C2=C/c1ccc(Cl)cc1` (stereo not shown) [Lumefantrine], the Emax in test [2] (setting [14]) worked out at 76.5%. In addition, the half-maximal inhibitory concentration (IC50) is 59 nM in test [2] (setting [10]), 33 nM in test [3] (setting [8]), 20 nM in test [6] and 13 nM in test [4] (setting [9]). Further, the “Activity against asexual parasites Efficacy (% response)” value in test [6] is recorded as -93.57 % response.
Turning to `CN1C[C@@H](NS(=O)(=O)N(C)C)C[C@@H]2c3cccc4c3c(cn4C)C[C@H]21` [Mesulergine, reference compound], in test [2] (setting [14]), the Emax amounted to 64%. Moreover, the half-inhibitory concentration (IC50) in test [2] (setting [15]) is 35500 nM. In test [6], the “Activity against asexual parasites Efficacy (% response)” value was “inactive” and the “Activity against asexual parasites IC50” value is “inactive”.
In the case of `CN1C[C@H](CNC(=O)OCc2ccccc2)C[C@@H]2c3cccc4c3c(cn4C)C[C@H]21` [Metergoline, reference compound], the IC50 in test [2] (setting [15]) was 12600 nM; in test [2] (setting [16]), 22400 nM; in test [6], 12600 nM. The “Activity against asexual parasites Efficacy (% response)” value in test [6] is on record as -71.24 % response.
For `COc1ccc(C2NC(=S)N3C(c4ccc(OC)c(OC)c4)NC(=S)N23)cc1OC` (stereo not shown) [NSC174938], in the test on HepG2 cells [1], the “IC50 in HepG2 cells” value is “Inactive”.
For `CO[C@]12C[C@@H](COC(=O)c3cncc(Br)c3)CN(C)[C@@H]1Cc1cn(C)c3cccc2c13` [Nicergoline, reference compound], the Emax in test [2] (setting [14]) stood at 39.4%. Moreover, the IC50 in test [2] (setting [15]) came to 22400 nM. In addition, in test [6], the “Activity against asexual parasites Efficacy (% response)” value is “inactive” and the “Activity against asexual parasites IC50” value was “inactive”.
Regarding `CNCCC=C1c2ccccc2CCc2ccccc21` [Nortriptyline hydrochloride, reference compound], the Emax in test [2] (setting [14]) came to 111%. Moreover, the IC50 in test [2] (setting [15]) is 22400 nM. Moreover, the IC50 in test [2] (setting [16]) came to 35500 nM. Besides, in test [6], the “Activity against asexual parasites Efficacy (% response)” value is “inactive” and the “Activity against asexual parasites IC50” value is “inactive”.
As for `COC(=O)C[C@](O)(CCCC(C)(C)O)C(=O)O[C@@H]1C(OC)=C[C@]23CCCN2CCc2cc4c(cc2[C@H]13)OCO4` [Omacetaxine], in the test on HepG2 cells [1], the “IC50 in HepG2 cells” value was “Curve not complete” and the “% Max response” value is -27%. Also, the IC50 in test [2] (setting [11]) is 83 nM.
Turning to `NC(=O)N1c2ccccc2CC(=O)c2ccccc21` [Oxcarbazepine, reference compound], in test [2] (SI Table 3, structure clusters), the “Activity against gametocytes Efficacy (% response)” value was “inactive” and the “Activity against gametocytes IC50” value was “inactive”. Besides, in test [6], the “Activity against asexual parasites Efficacy (% response)” value was “inactive” and the “Activity against asexual parasites IC50” value was “inactive”.
Consider `CCCN1C[C@H](CSC)C[C@@H]2c3cccc4[nH]cc(c34)C[C@H]21` [Pergolide methanesulfonate, reference compound], for which, in test [2] (setting [14]), the Emax is 83.5%. The half-inhibitory concentration (IC50) in test [2] (setting [15]) was determined as 22400 nM. Besides, the “Activity against gametocytes IC50” value in test [2] (SI Table 3, structure clusters) is “inactive”. Besides, in test [6], the “Activity against asexual parasites Efficacy (% response)” value is “inactive” and the “Activity against asexual parasites IC50” value was “inactive”.
With `CNCCCC1c2ccccc2C=Cc2ccccc21` [Protriptyline hydrochloride], the Emax in test [2] (setting [14]) was found to be 81.7%. Also, in test [6], the “Activity against asexual parasites Efficacy (% response)” value is “inactive” and the “Activity against asexual parasites IC50” value is “inactive”.
Consider `C=CC1CN2CCC1CC2C(O)c1ccnc2ccc(OC)cc12.C=CC1CN2CCC1CC2C(O)c1ccnc2ccc(OC)cc12.O=S(=O)(O)O` (stereo not shown) [Quinine hemisulfate], for which the “IC50 in HepG2 cells” value in the test with HepG2 cells [1] was “Inactive”. The “% Max response” value with HepG2 cells [1] worked out at 2%. Further, the half-maximal inhibitory concentration (IC50) in test [2] (setting [11]) was found to be 345 nM; in test [3] (setting [12]) it was 235 nM; in test [4] (setting [13]), 83 nM.
For the compound `CCN(CC)C(=O)N[C@H]1C[C@@H]2c3cccc4[nH]cc(c34)C[C@H]2N(C)C1` [Terguride, reference compound], in test [2] (setting [14]), the Emax was found to be 80.7%. Moreover, the IC50 in test [2] (setting [15]) came out at 28200 nM. Moreover, in test [6], the “Activity against asexual parasites Efficacy (% response)” value was “inactive” and the “Activity against asexual parasites IC50” value was “inactive”.
Take `CC(=O)Nc1cccc(-n2c(=O)n(C3CC3)c(=O)c3c(Nc4ccc(I)cc4F)n(C)c(=O)c(C)c32)c1` [Trametinib]: in the test on HepG2 cells [1], the “IC50 in HepG2 cells” value is “Inactive”. Further, the IC50 in test [2] (setting [7]) was determined as 935 nM. Moreover, the Emax in the test with HepG2 cells [5] came out at 14%.
For `CC(CN(C)C)CN1c2ccccc2CCc2ccccc21` (stereo not shown) [Trimipramine maleate, reference compound], the Emax in test [2] (setting [14]) came out at 47%. For the same compound, the IC50 in test [2] (setting [15]) worked out at 22400 nM. In addition, the “Activity against gametocytes IC50” value in test [2] (SI Table 3, structure clusters) is “inactive”. Moreover, in test [6], the “Activity against asexual parasites IC50” value is “inactive” and the IC50 was 30700 nM.
Turning to Monensin sodium, in the test with HepG2 cells [1], the “IC50 in HepG2 cells” value is recorded as “Inactive”. The “% Max response” value with HepG2 cells [1] was found to be 40%. The half-inhibitory concentration (IC50) in test [2] (setting [17]) came to 254 nM; in test [3] (setting [18]), 264 nM; in test [4] (setting [19]), 372 nM.
For Plicamycin, in the test with HepG2 cells [1], the “IC50 in HepG2 cells” value was “Inactive”. Besides, the “% Max response” value in the test with HepG2 cells [1] is reported as 3%. Moreover, the results for the IC50 in test [2] (setting [17]), in test [3] (setting [18]) and in test [4] (setting [19]) were 833 nM, 2960 nM and 2350 nM, respectively.
